These results are taken from PMC9719519, “Non-classical ferroptosis inhibition by a small molecule targeting PHB2” (Nature Communications, 2022).

Molecules are shown by their SMILES.

What all share (experiment): biochemical
What all share (set-up): Eurofins recombinant human kinase profiling, remaining kinase activity as % of control, 10 uM ATP
Details in all cases: ATP 10 uM; read-out: %Ctrl@10 μM

For test [1], the target named is ULK1(h) (Homo sapiens, UniProt O75385). An excerpt:
(§1) To rapidly determine the biological target of YL-939, we first tested the activity of YL-939 against a panel of 401 recombinant human protein kinases by using the kinase profiling assay provided by Eurofins, since kinases are often the key components in various signal pathways[35],[36]. […] We then carried out affinity-based proteome profiling assay (ABPP) coupled with bioimaging to identify the biological target of YL-939 (Fig. 4A). To this end, we designed and synthesized a photoaffinity probe, YL-939-1 (Fig. 4A and Supplementary Fig. 5), which is YL-939 attached by a photo-crosslinker (L3) that contains a photo-reactive group diazirine and a clickable alkyne handle.

The target of test [2] is T1, Rsk3(h) (Homo sapiens, UniProt Q15349).
T1 construct: gene RPS6KA2
T1 sequence (Q15349 whole entry): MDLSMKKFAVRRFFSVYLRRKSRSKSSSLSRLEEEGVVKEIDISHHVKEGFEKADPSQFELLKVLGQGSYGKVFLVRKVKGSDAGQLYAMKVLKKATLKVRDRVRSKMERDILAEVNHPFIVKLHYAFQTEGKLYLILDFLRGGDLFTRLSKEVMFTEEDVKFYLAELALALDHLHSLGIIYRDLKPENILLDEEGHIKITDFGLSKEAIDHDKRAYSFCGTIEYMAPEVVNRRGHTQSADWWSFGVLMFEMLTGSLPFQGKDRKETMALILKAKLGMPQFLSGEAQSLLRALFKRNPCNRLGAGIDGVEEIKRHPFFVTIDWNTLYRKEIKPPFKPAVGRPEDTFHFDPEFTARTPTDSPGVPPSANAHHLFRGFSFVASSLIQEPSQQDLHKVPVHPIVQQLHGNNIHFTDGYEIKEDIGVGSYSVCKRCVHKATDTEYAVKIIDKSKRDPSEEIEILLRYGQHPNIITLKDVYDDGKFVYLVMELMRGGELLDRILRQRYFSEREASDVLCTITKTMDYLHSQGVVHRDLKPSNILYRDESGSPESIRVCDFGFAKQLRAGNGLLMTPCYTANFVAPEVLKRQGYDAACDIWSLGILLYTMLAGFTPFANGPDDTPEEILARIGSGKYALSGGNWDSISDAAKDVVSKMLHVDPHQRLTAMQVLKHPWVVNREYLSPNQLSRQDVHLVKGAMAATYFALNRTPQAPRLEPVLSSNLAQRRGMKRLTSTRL
Excerpt: as §1

The target of test [3] is T2, MEK2(h) (Homo sapiens, UniProt P36507).
T2 construct: gene MAP2K2
T2 sequence (P36507 whole entry): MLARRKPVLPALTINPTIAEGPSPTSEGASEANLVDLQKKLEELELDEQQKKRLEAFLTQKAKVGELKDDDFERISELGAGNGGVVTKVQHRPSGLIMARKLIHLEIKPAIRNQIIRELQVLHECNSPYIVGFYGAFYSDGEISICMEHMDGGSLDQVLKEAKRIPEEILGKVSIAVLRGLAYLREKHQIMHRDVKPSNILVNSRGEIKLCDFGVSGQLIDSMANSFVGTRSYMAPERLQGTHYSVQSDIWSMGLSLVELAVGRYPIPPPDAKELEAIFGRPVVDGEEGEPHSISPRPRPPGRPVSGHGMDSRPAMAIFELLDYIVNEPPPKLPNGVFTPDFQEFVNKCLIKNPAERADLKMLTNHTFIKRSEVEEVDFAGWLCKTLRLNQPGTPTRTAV
Excerpt: as §1

The target in test [4] is BMPR2(h) (Homo sapiens, UniProt Q13873).
Excerpt: as §1

The target of test [5] is T3, CHK2(R145W)(h) (Homo sapiens, UniProt O96017, R145W).
T3 construct: gene CHEK2
Excerpt: as §1

Test [6] deals with Plk3(h) (Homo sapiens, UniProt Q9H4B4).
Excerpt: as §1

In test [7] the target is T4, PKCβII(h) (Homo sapiens, UniProt P05771).
T4 construct: gene PRKCB; isoform beta II
Excerpt: as §1

The target of test [8] is SNRK(h) (Homo sapiens, UniProt Q9NRH2).
Excerpt: as §1

Test [9] has as its target NEK1(h) (Homo sapiens, UniProt Q96PY6).
Excerpt: as §1

Test [10] addresses T5, MAPK2(h) (Homo sapiens, UniProt P28482).
T5 construct: gene MAPK1
Excerpt: as §1

Test [11] has as its target T6, Aurora-C(h) (Homo sapiens, UniProt Q9UQB9).
T6 construct: gene AURKC
Excerpt: as §1

Test [12] deals with T7, CaMKI(h) (Homo sapiens, UniProt Q14012).
T7 construct: gene CAMK1
T7 sequence (Q14012 whole entry): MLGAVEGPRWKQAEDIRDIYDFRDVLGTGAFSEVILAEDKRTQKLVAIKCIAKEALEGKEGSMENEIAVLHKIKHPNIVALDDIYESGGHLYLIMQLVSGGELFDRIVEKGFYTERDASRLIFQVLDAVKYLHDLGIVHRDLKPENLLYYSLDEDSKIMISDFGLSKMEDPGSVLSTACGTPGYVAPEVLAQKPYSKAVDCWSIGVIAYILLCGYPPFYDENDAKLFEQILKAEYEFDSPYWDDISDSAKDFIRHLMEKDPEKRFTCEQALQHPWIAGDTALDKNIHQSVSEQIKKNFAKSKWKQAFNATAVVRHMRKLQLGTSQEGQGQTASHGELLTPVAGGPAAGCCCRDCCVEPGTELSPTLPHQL
Excerpt: as §1

Test [13] concerns the target T8, SAPK4(h) (Homo sapiens, UniProt O15264).
T8 construct: gene MAPK13
Excerpt: as §1

For test [14], the target named is T9, PKCθ(h) (Homo sapiens, UniProt Q04759).
T9 construct: gene PRKCQ
T9 sequence (Q04759 whole entry): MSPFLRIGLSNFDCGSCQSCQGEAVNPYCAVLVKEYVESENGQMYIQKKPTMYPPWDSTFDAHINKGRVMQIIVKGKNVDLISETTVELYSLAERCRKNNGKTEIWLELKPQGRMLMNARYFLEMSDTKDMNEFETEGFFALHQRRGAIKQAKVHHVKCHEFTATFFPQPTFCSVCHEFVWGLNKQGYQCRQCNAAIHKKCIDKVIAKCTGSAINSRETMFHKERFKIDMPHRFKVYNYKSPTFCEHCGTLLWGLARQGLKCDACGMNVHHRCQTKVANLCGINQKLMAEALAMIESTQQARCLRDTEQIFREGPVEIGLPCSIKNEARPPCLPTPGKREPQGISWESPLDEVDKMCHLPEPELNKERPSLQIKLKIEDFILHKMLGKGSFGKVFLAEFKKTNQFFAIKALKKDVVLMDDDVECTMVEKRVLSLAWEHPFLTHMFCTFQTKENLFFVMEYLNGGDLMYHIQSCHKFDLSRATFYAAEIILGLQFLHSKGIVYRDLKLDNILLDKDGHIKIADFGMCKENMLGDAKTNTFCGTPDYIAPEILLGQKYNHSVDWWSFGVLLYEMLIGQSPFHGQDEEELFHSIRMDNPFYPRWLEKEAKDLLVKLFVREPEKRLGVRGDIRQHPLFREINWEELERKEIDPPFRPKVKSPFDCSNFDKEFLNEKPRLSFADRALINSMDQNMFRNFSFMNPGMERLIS
Excerpt: as §1

Test [15] addresses STK25(h) (Homo sapiens, UniProt O00506).
Excerpt: as §1

Test [16] concerns the target T10, PKCγ(h) (Homo sapiens, UniProt P05129).
T10 construct: gene PRKCG
Excerpt: as §1

The target in test [17] is STK16(h) (Homo sapiens, UniProt O75716).
Excerpt: as §1

For test [18], the target named is TYK2(h) (Homo sapiens, UniProt P29597).
Excerpt: as §1

Test [19] concerns the target CDKL3(h) (Homo sapiens, UniProt Q8IVW4).
Excerpt: as §1

The target in test [20] is T11, PKD3(h) (Homo sapiens, UniProt O94806).
T11 construct: gene PRKD3
Excerpt: as §1

Test [21] has as its target T12, SAPK2b(h) (Homo sapiens, UniProt Q15759).
T12 construct: gene MAPK11
Excerpt: as §1

For test [22], the target named is T13, Src(1-530)(h) (Homo sapiens, UniProt P12931).
T13 construct: residues 1-530
Excerpt: as §1

The target in test [23] is Plk1(h) (Homo sapiens, UniProt P53350).
Chain of Plk1(h) (P53350 whole entry): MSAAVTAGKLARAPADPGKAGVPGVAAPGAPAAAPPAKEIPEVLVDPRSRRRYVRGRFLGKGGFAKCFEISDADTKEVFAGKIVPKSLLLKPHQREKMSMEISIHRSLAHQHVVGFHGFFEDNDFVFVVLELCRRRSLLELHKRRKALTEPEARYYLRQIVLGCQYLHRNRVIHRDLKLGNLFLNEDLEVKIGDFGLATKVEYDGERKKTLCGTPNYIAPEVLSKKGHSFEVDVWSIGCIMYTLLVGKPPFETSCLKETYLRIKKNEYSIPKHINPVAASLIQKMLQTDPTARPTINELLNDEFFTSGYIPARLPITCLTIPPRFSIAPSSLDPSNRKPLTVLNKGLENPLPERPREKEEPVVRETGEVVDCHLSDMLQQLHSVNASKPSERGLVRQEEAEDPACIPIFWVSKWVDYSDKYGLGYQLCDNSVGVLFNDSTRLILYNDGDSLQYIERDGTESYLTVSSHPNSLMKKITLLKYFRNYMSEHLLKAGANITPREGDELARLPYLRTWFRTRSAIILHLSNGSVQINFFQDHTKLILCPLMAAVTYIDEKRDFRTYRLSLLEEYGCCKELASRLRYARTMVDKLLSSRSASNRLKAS
Excerpt: as §1

Chain of ULK1(h) (O75385 whole entry): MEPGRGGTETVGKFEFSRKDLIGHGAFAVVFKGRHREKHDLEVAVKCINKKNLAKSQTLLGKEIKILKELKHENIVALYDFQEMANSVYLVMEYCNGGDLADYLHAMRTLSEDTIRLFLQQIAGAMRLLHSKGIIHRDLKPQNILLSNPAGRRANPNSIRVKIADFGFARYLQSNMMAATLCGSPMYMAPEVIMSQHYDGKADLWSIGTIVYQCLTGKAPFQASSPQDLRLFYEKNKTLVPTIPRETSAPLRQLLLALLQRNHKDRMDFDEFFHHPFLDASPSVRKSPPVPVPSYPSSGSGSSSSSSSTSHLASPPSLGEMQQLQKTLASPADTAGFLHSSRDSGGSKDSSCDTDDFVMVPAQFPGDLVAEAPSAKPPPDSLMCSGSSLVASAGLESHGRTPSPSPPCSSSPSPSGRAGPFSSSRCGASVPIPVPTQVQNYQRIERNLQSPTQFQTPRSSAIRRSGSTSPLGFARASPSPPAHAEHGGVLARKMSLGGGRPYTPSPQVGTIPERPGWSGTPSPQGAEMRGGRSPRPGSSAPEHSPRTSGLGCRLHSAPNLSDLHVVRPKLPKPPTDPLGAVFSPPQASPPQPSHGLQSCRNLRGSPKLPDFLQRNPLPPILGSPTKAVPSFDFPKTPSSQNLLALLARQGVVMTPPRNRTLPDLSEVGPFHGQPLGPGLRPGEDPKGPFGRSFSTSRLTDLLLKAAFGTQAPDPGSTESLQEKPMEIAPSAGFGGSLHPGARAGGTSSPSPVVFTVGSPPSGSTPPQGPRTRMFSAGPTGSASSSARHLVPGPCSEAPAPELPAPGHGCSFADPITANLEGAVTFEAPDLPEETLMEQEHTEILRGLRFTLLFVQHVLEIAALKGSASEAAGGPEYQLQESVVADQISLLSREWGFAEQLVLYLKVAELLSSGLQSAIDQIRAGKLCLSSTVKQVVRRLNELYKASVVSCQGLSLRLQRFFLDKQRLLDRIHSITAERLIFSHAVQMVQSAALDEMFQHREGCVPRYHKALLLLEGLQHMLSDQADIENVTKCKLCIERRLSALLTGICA
T5 sequence (P28482 whole entry): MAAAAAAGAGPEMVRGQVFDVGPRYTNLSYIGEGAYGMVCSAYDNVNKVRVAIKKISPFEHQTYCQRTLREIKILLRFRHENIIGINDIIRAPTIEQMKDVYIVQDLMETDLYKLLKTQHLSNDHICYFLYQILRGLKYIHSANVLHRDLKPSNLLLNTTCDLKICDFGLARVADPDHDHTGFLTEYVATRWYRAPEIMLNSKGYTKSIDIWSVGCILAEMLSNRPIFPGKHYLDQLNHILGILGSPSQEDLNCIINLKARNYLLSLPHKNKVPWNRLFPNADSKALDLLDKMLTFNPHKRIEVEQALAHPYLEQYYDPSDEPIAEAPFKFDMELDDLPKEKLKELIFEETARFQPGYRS
Chain of STK25(h) (O00506 whole entry): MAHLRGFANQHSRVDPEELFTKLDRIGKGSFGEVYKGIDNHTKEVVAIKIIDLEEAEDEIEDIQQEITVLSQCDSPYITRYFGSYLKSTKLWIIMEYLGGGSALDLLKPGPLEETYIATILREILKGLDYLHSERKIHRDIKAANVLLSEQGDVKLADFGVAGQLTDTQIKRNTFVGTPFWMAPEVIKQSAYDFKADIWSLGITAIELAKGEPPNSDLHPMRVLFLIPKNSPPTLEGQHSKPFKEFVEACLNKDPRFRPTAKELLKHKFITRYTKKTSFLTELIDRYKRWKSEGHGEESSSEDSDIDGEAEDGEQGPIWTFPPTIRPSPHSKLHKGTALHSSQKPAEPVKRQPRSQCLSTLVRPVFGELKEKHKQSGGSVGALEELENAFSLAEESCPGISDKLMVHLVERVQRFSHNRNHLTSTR
T12 sequence (Q15759 whole entry): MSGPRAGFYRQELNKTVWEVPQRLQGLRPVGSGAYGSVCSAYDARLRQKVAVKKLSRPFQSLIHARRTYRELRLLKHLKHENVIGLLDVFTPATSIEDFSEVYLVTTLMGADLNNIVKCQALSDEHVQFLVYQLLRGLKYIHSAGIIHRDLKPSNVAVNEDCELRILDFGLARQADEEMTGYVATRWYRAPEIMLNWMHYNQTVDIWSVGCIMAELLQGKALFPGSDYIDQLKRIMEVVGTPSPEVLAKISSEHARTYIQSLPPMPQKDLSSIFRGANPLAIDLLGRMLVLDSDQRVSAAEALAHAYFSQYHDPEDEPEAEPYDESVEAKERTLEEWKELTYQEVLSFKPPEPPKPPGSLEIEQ

As to `C1=C(c2nc(-c3cnn(C4CCNCC4)c3)cn3cc(-c4ccccc4)nc23)CCOC1` [YL-939], the remaining activity at 10 µM in [1] was 65%; in test [2], 96%; in [3], 89%; in [4], 99%; in test [5], 98%; in test [6], 103%. Besides, the remaining activity at 10 µM in test [7] was 95%; in test [8], 100%; in test [9], 105%; in [10], 88%; in [11], 101%; in [12] it was 81%. In addition, the remaining activity at 10 µM was found to be 100% in test [13]; 93% in test [14]; 82% in test [15]; 96% in test [16]; 100% in test [17]; 95% in [18]. In addition, the remaining activity at 10 µM turned out to be 82% in test [19]; 87% in [20]; 84% in [21]; 85% in test [22]; 84% in test [23].
